Columns and labels:
[1] = 2-compartment LEN population pharmacokinetic (PopPK) model from pooled clinical PK data (IV/oral/SC LEN); assay type: in vivo, human; conditions: column HTE
Excerpt: PK data were pooled from several clinical studies in healthy participants and people with HIV-1 who received intravenous (IV)/oral/SC LEN and a 2-compartment LEN population pharmacokinetic (PopPK) model with first-order absorption and linear elimination was built to simulate various weekly dosing regimens (loading+maintenance doses) that can achieve efficacious LEN concentrations rapidly and be maintained through the dosing interval. Various scenarios including 1-3 weeks of missed oral dosing were simulated to evaluate the forgiveness window; these simulations were performed with the PopPK model incorporating variability and covariate effects. The model pharmacokinetic parameters for lenacapavir are provided in Table 1 where CL=clearance; Fpo=oral bioavailability; Fsc=SC bioavailability; GI=gastrointestinal; HTE=heavily treatment experienced; IIV=interindividual variability; Ka=absorption rate constant; Kdir=direct absorption rate constant; Ktr=transit absorption rate constant; PK=pharmacokinetic; Q=intercompartmental CL; Vc=volume of central compartment; Vp=volume of peripheral compartment.

[2] = system: HIV-1; experiment: virologic suppression in Phase 2/3 clinical studies; assay type: in vivo, human; conditions: at mean trough concentration of 15.5 ng/mL (IQ4)
[3] = pharmacokinetics following single-dose administration of oral LEN 50-1800 mg; assay type: in vivo; conditions: single-dose oral LEN 50-1800 mg
[4] = system: MT-4 cells; experiment: in vitro protein-adjusted 95% effective concentration derived from MT-4 cells (inhibitory quotient 4); assay type: cell-based; conditions: 4-fold greater than in vitro protein-adjusted 95% effective concentration from MT-4 cells

## CC(C)(C#Cc1ccc(-c2ccc(Cl)c3c(NS(C)(=O)=O)nn(CC(F)(F)F)c23)c([C@H](Cc2cc(F)cc(F)c2)NC(=O)Cn2nc(C(F)(F)F)c3c2C(F)(F)[C@@H]2C[C@H]32)n1)S(C)(=O)=O [lenacapavir, N—((S)-1-(3-(4-chloro-3-(methylsulfonamido)-1-(2,2,2-trifluoroethyl)-1H-indazol-7-yl)-6-(3-methyl-3-(methylsulfonyl)but-1-yn-1-yl)pyridin-2-yl)-2-(3,5-difluorophenyl)ethyl)-2-((3bS,4aR)-5,5-difluoro-3-(trifluoromethyl)-3b,4,4a,5-tetrahydro-1H-cyclopropa[3,4]cyclopenta[1,2-c]pyrazol-1-yl)acetamide]
[1]; PopPK covariate effect
  θ11: dose effect on Fpo: −0.414
  θ16: HV effect on Vp: 1.35
  θ19: pharmacoenhancer/booster effect on Fpo: 0.534
  θ20: SC 150 mg/mL effect on Vp: −0.795
  θ21: SC 150 mg/mL effect on Ktr: 0.433
[1]; PopPK model parameter, SC bioavailability
  θ10: Fsc relative to IV: 1.02
[1]; PopPK model parameter, SC
  θ6: SC Ktr: 0.00202 h⁻¹
  θ7: SC Kdir: 1.06e-06 s⁻¹
  θ8: SC fraction for direct absorption: 0.421
[1]; PopPK model parameter
  θ2: Vc: 67.9 L
  θ4: Vp: 908 L
  θ5: Q: 41.2 L/h
[1]; PopPK model parameter, oral bioavailability
  θ9: Fpo relative to IV: 0.0627
[1]; PopPK model parameter, oral
  θ3: PO Ka: 0.0286 h⁻¹
[1]; PopPK residual error
  σ1: residual proportion variability: 27.3% CV
  σ2: residual additive: 0.05 ng/mL
[1]; fixed allometric exponent
  θ15: weight effect on Vc and Vp: 1
[1]; human, plasma, other: pooled intravenous, oral and subcutaneous, PopPK model parameter, read-out: θ1: CL (converted)
  clearance: 60.3 mL/min
[1]; interindividual variability
  ω11: IIV on CL: 43.2 % CV
  ω22: IIV on Vc: 0% CV
  ω33: IIV on Vp: 85.4 % CV
  ω44: IIV on Ktr: 32.4 % CV
  ω55: IIV on Ka: 78.4 % CV
  ω66: IIV on Kdir: 0% CV
  ω77: IIV on Fsc: 38.9% CV
[2]
  virologic suppression: high rates of virologic suppression
[3]; human, plasma
  half-life: 10 to 13 days
[3]
  oral LEN exposure increase with dose: less than dose proportionally
[4]
  inhibitory quotient 4 (IQ4) mean trough concentration: 15.5 ng/mL

— US20250057826A1, “WEEKLY REGIMEN FOR HIV” (Gilead Sciences, Inc., priority 2023, published 2025)
